# From article PMC6278664, “Highly Cancer Selective Antiproliferative Activity of Natural Prenylated Flavonoids” (Molecules, 2018)
# System: MCF7 human breast cancer cell line
# Assay: SRB antiproliferative assay, MCF7
# Assay type: cell-based
# Settings: Homo sapiens, MCF7, 72 h, SRB, 72 h, mean ± SD
# Method: (§1) We determined the effect of various structural factors in the substrates on the antiproliferative activity against those selected to the study cell lines: the location and/or the presence of the prenyl group, the chalcone/flavanone skeleton and the presence of an O-methyl group at C-5 in flavanones. Flavonoids presented in Figure 1 were tested for the antiproliferative activity towards eight cancer cell lines including estrogen-dependent (MCF7 and T-47D) and two normal ones (HLMEC and MCF 10A). The in vitro antiproliferative activity was measured using SRB assay. The results are presented in Figure 2 (and in the supplement in Table S1). The antiproliferative activity was measured separately for each of the experiments and given as the average IC50 (the concentration of tested compound which inhibits 50% of the cells population). Cisplatin (CP), a common anticancer drug, was used as a positive control.
# (§2) The following established in vitro cell lines were applied: MCF7, T-47D, MDA-MB-231 (human breast cancer cell line), A2780 (human ovarian cancer cell line), A2780cis (human cisplatin-resistant ovarian cancer cell line), PC-3 and DU 145 (human prostate cancer cell lines), HT-29 (human colon cancer cell line), HLMEC (human lung microvascular endothelial cell line), and MCF 10A (human mammary epithelial cells line).
# (§3) The cell lines: MDA-MB-231, HT-29, PC-3, DU 145, and MCF 10A were obtained from the American Type Culture Collection (Rockville, MD, USA), MCF7, T-47D, A2780, A2780cis from the European Collection Cell Cultures (Sigma-Aldrich, Chemie GmbH, Steinheim, Germany), while the HLMEC cell line was obtained by M. Paprocka from the institute. All cell lines are being maintained in the Institute of Immunology and Experimental Therapy (Wrocław, Poland). DU 145 and MCF7 cells were cultured in Eagle medium (supplemented with 4mM L-glutamine, 10% fetal bovine serum, 1 mM sodium pyruvate for DU 145 cells or 2 mM L-glutamine, 1% mem non-essential amino acid solution and 8 µg/mL insulin and 10% fetal bovine serum for MCF7). […] HT-29 and T-47D cell lines were cultured in RPMI 1640 + OPTI-MEM medium supplemented with 2 mM L-glutamine, 5% fetal bovine serum and 8 µg/mL of insulin (T-47D) or 1 mM sodium pyruvate (HT-29). MDA-MB-231, PC-3 and HLMEC cell lines were cultured in RPMI 1640 medium supplemented with 2 mM L-glutamine and 10% fetal bovine serum. Medium for MCF 10A cell line consisted of F-12 nutrient mixture supplemented with cholera toxin (0.05 µg/mL), insulin (10 µg/mL), hydrocortisone (0.5 µg/mL), 5% horse serum, and EGFH (20 ng/mL). All the culture media contained antibiotics: 100 units/mL penicillin (Polfa Tarchomin SA, Warsaw, Poland), and 100 µg/mL streptomycin (Sigma-Aldrich, Chemie GmbH, Steinheim, Germany). All cell lines were grown at 37 °C with 5% CO2 humidified atmosphere.
# (§4) Twenty-four hours before the incubation with the tested compounds, the cells were seeded in 96-plates (Sarstedt, Germany) at a density of 1 × 10^4 cells per well (0.75 × 10^4 per well for MCF7 and 1 × 10^3 per well for HLMEC) in 100 µL of a culture medium.
# (§5) Each agent at each concentration (from 0.1 to 100 µg/mL) was tested in a single experiment, which was repeated four to five times. […] Cisplatin was used as a reference drug.
# (§6) The results were calculated as the IC50 (inhibitory concentration 50%)—the concentration of the tested compound which inhibits 50% of the cells population. IC50 values were calculated for each experiment separately and mean values ± SD are presented in the Table S1 in the Supplementary Materials. Each compound at each concentration was tested in triplicate in a single experiment, which was repeated four to five times.
# (§7) The cells were fixed in situ by gently adding cold 50% trichloroacetic acid (50 µL per well). The plates were incubated at 4 °C for 1h and then washed five times with tap water. […]
row,Structure (SMILES),IC50
1,"O=C1C[C@@H](c2ccc(O)cc2)Oc2cc(O)cc(O)c21 [NG, Naringenin, reference compound]",131 ± 6.11 µM

# Same assay, conditions: IC50 HLMEC / IC50 MCF-7
row,Structure (SMILES),"Selectivity index SIA, MCF-7"
1,"O=C1C[C@@H](c2ccc(O)cc2)Oc2cc(O)cc(O)c21 [NG, Naringenin, reference compound]",0.90

# Same assay, conditions: IC50 MCF-10A / IC50 MCF-7
row,Structure (SMILES),"Selectivity index SIB, MCF-7"
1,"O=C1C[C@@H](c2ccc(O)cc2)Oc2cc(O)cc(O)c21 [NG, Naringenin, reference compound]",1.43

# Same assay, conditions: SRB, 72 h, mean ± SD
row,Structure (SMILES),IC50
1,"O=C1C[C@@H](c2ccc(O)cc2)Oc2cc(O)cc(O)c21 [NG, Naringenin, reference compound]",187 ± 72.4 µM

# System: MCF 10A human mammary epithelial cells line
# Assay: SRB antiproliferative assay, MCF 10A (normal)
# Assay type: cell-based
# Settings: Homo sapiens, MCF-10A, 72 h, mean ± SD, read-out: Normal cell line, IC50, MCF-10A
# Method: as §1, §2, §3, §4, §5, §6, §7
row,Structure (SMILES),IC50
1,"O=C1C[C@@H](c2ccc(O)cc2)Oc2cc(O)cc(O)c21 [NG, Naringenin, reference compound]",187 ± 72.4 µM

# System: A2780 human ovarian cancer cell line
# Assay: SRB antiproliferative assay, A2780
# Assay type: cell-based
# Settings: Homo sapiens, A2780; SRB, 72 h, mean ± SD; read-out: Cancer cell line, IC50, A-2780
# Method: as §1, §2, §3, §4, §5, §6, §7
row,Structure (SMILES),IC50
1,"O=C1C[C@@H](c2ccc(O)cc2)Oc2cc(O)cc(O)c21 [NG, Naringenin, reference compound]",100 ± 4.77 µM

# Same assay, conditions: IC50 HLMEC / IC50 A-2780
row,Structure (SMILES),"Selectivity index SIA, A-2780"
1,"O=C1C[C@@H](c2ccc(O)cc2)Oc2cc(O)cc(O)c21 [NG, Naringenin, reference compound]",1.17

# Same assay, conditions: IC50 MCF-10A / IC50 A-2780
row,Structure (SMILES),"Selectivity index SIB, A-2780"
1,"O=C1C[C@@H](c2ccc(O)cc2)Oc2cc(O)cc(O)c21 [NG, Naringenin, reference compound]",1.87

# System: PC-3 human prostate cancer cell line
# Assay: SRB antiproliferative assay, PC-3
# Assay type: cell-based
# Settings: Homo sapiens; SRB, 72 h, mean ± SD
# Method: as §1, §2, §3, §4, §5, §6, §7
row,Structure (SMILES),IC50
1,"O=C1C[C@@H](c2ccc(O)cc2)Oc2cc(O)cc(O)c21 [NG, Naringenin, reference compound]",171 ± 28.8 µM

# Same assay, conditions: IC50 HLMEC / IC50 PC-3
row,Structure (SMILES),"Selectivity index SIA, PC-3"
1,"O=C1C[C@@H](c2ccc(O)cc2)Oc2cc(O)cc(O)c21 [NG, Naringenin, reference compound]",0.68

# Same assay, conditions: IC50 MCF-10A / IC50 PC-3
row,Structure (SMILES),"Selectivity index SIB, PC-3"
1,"O=C1C[C@@H](c2ccc(O)cc2)Oc2cc(O)cc(O)c21 [NG, Naringenin, reference compound]",1.09

# System: T-47D human breast cancer cell line
# Assay: SRB antiproliferative assay, T-47D
# Assay type: cell-based
# Settings: Homo sapiens, T47D; SRB, 72 h, mean ± SD
# Method: as §1, §2, §3, §4, §5, §6, §7
row,Structure (SMILES),IC50
1,"O=C1C[C@@H](c2ccc(O)cc2)Oc2cc(O)cc(O)c21 [NG, Naringenin, reference compound]",105 ± 48.3 µM

# Same assay, conditions: IC50 HLMEC / IC50 T-47D
row,Structure (SMILES),"Selectivity index SIA, T-47D"
1,"O=C1C[C@@H](c2ccc(O)cc2)Oc2cc(O)cc(O)c21 [NG, Naringenin, reference compound]",1.12

# Same assay, conditions: IC50 MCF-10A / IC50 T-47D
row,Structure (SMILES),"Selectivity index SIB, T-47D"
1,"O=C1C[C@@H](c2ccc(O)cc2)Oc2cc(O)cc(O)c21 [NG, Naringenin, reference compound]",1.79

# System: DU 145 human prostate cancer cell line
# Assay: SRB antiproliferative assay, DU 145
# Assay type: cell-based
# Settings: Homo sapiens, DU-145; SRB, 72 h, mean ± SD
# Method: as §1, §2, §3, §4, §5, §6, §7
row,Structure (SMILES),IC50
1,"O=C1C[C@@H](c2ccc(O)cc2)Oc2cc(O)cc(O)c21 [NG, Naringenin, reference compound]",134 ± 12.9 µM

# Same assay, conditions: IC50 HLMEC / IC50 Du-145
row,Structure (SMILES),"Selectivity index SIA, Du-145"
1,"O=C1C[C@@H](c2ccc(O)cc2)Oc2cc(O)cc(O)c21 [NG, Naringenin, reference compound]",0.88

# Same assay, conditions: IC50 MCF-10A / IC50 Du-145
row,Structure (SMILES),"Selectivity index SIB, Du-145"
1,"O=C1C[C@@H](c2ccc(O)cc2)Oc2cc(O)cc(O)c21 [NG, Naringenin, reference compound]",1.40

# System: HLMEC human lung microvascular endothelial cell line
# Assay: SRB antiproliferative assay, HLMEC (normal)
# Assay type: cell-based
# Settings: Homo sapiens, Endothelial cell, 72 h, mean ± SD
row,Structure (SMILES),IC50
1,"O=C1C[C@@H](c2ccc(O)cc2)Oc2cc(O)cc(O)c21 [NG, Naringenin, reference compound]",117 ± 32.3 µM

# System: MDA-MB-231 human breast cancer cell line
# Assay: SRB antiproliferative assay, MDA-MB-231
# Assay type: cell-based
# Settings: Homo sapiens, MDA-MB-231; SRB, 72 h, mean ± SD
# Method: as §1, §2, §3, §4, §5, §6, §7
row,Structure (SMILES),IC50
1,"O=C1C[C@@H](c2ccc(O)cc2)Oc2cc(O)cc(O)c21 [NG, Naringenin, reference compound]",166 ± 82.4 µM

# Same assay, conditions: IC50 HLMEC / IC50 MDA-MB-231
row,Structure (SMILES),"Selectivity index SIA, MDA-MB-231"
1,"O=C1C[C@@H](c2ccc(O)cc2)Oc2cc(O)cc(O)c21 [NG, Naringenin, reference compound]",0.71

# Same assay, conditions: IC50 MCF-10A / IC50 MDA-MB-231
row,Structure (SMILES),"Selectivity index SIB, MDA-MB-231"
1,"O=C1C[C@@H](c2ccc(O)cc2)Oc2cc(O)cc(O)c21 [NG, Naringenin, reference compound]",1.13

# System: HT-29 human colon cancer cell line
# Assay: SRB antiproliferative assay, HT-29
# Assay type: cell-based
# Settings: Homo sapiens, HT-29; SRB, 72 h, mean ± SD
row,Structure (SMILES),IC50
1,"O=C1C[C@@H](c2ccc(O)cc2)Oc2cc(O)cc(O)c21 [NG, Naringenin, reference compound]",131 ± 28.2 µM

# Same assay, conditions: IC50 HLMEC / IC50 HT-29
row,Structure (SMILES),"Selectivity index SIA, HT-29"
1,"O=C1C[C@@H](c2ccc(O)cc2)Oc2cc(O)cc(O)c21 [NG, Naringenin, reference compound]",0.90

# Same assay, conditions: IC50 MCF-10A / IC50 HT-29
row,Structure (SMILES),"Selectivity index SIB, HT-29"
1,"O=C1C[C@@H](c2ccc(O)cc2)Oc2cc(O)cc(O)c21 [NG, Naringenin, reference compound]",1.43

# System: A2780cis human cisplatin-resistant ovarian cancer cell line
# Assay: SRB antiproliferative assay, A2780cis
# Assay type: cell-based
# Settings: Homo sapiens, A2780cis; SRB, 72 h, mean ± SD; read-out: Cancer cell line, IC50, A-2780cis
# Method: as §1, §2, §3, §4, §5, §6, §7
row,Structure (SMILES),IC50
1,"O=C1C[C@@H](c2ccc(O)cc2)Oc2cc(O)cc(O)c21 [NG, Naringenin, reference compound]",109 ± 17 µM

# Same assay, conditions: IC50 HLMEC / IC50 A-2780cis
row,Structure (SMILES),"Selectivity index SIA, A-2780cis"
1,"O=C1C[C@@H](c2ccc(O)cc2)Oc2cc(O)cc(O)c21 [NG, Naringenin, reference compound]",1.07

# Same assay, conditions: IC50 MCF-10A / IC50 A-2780cis
row,Structure (SMILES),"Selectivity index SIB, A-2780cis"
1,"O=C1C[C@@H](c2ccc(O)cc2)Oc2cc(O)cc(O)c21 [NG, Naringenin, reference compound]",1.71
